According to patent publication US20230024096A1, “BIFUNCTIONAL COMPOUNDS FOR THE TREATMENT OF CANCER” (Hoffmann-La Roche Inc., priority 2019, published 2023):

Target: T1, SMARCA2 (Homo sapiens, UniProt P51531)
T1 construct: endogenous in cells; host or cells: HT1080 (CRISPR HiBiT knock-in clone, generated in house)
Assay: SMARCA2 HiBiT degradation assay (cellular)
Format: cell-based
Details: table head names A549; for DC50: 6 h incubation, HiBiT-tagged SMARCA2, luminescence read-out, read-out: HiBit A549 SMARCA2 IP (nM) 6 h; for Emax: A549, 6 h incubation, Emax = amount of residual protein remaining in the cell following compound treatment

T1 sequence (P51531 whole entry): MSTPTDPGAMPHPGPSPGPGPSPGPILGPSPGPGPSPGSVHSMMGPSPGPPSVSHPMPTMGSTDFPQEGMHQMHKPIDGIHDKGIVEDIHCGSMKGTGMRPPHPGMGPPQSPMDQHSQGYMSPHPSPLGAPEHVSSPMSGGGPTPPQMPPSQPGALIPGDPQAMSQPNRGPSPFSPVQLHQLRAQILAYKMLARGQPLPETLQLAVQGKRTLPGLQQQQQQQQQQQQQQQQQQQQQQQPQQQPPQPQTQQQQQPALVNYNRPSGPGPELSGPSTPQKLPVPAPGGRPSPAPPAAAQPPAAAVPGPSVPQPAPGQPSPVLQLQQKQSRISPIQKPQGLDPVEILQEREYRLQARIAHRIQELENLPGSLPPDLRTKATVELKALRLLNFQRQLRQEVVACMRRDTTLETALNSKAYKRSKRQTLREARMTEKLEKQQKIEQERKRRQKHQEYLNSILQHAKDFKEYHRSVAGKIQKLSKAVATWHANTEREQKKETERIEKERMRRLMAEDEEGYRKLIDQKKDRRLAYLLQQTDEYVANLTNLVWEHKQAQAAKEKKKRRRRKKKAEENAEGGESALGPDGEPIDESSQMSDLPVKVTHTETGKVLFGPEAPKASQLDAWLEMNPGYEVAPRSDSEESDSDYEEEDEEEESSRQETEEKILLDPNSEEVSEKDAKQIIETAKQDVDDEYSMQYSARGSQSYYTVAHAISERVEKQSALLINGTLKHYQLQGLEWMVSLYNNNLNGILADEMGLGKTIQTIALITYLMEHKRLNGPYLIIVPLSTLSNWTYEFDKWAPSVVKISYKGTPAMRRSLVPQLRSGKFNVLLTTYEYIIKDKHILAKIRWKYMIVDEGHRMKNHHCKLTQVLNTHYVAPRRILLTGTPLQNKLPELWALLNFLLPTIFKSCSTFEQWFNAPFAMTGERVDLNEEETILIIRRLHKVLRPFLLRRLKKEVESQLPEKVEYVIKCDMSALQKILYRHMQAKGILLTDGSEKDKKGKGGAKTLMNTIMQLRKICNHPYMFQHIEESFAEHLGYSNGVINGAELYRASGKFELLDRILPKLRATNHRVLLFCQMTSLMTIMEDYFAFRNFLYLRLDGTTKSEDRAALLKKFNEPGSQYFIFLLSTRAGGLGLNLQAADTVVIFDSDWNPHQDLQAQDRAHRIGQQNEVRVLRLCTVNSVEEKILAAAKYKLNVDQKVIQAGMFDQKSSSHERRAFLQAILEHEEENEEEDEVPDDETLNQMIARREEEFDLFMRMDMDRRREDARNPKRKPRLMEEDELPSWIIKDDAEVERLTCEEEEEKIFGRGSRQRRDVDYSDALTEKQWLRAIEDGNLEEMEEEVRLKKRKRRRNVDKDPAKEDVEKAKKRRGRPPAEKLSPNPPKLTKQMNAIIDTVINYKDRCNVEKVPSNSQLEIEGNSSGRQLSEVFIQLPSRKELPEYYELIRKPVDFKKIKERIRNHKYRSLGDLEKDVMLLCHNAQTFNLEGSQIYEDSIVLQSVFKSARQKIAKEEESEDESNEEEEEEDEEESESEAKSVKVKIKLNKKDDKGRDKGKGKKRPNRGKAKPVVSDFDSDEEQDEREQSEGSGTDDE

Compound	DC50 [nM]	Emax [%]
Nc1nnc(-c2ccccc2O)cc1N1CC2CCC(C1)N2c1cccc(CN2CCC(C(=O)N3CCC(c4ccc(OC5CCC(=O)NC5=O)cc4)CC3)CC2)c1 (racemic) [Example 92, rac-3-[4-[1-[1-[[3-[3-[3-amino-6-(2-hydroxyphenyl)pyridazin-4-yl]-3,8-diazabicyclo[3.2.1]octan-8-yl]phenyl]methyl]piperidine-4-carbonyl]-4-piperidyl]phenoxy]piperidine-2,6-dione]	17	41
Nc1nnc(-c2ccccc2O)cc1N1CCC(C(=O)N2CC3(CN(C(=O)CC4CCN(c5ccc6c(c5)C(=O)N(C5CCC(=O)NC5=O)C6=O)CC4)C3)C2)(c2ccccc2)CC1 (stereo not shown) [Example 122, 5-(4-(2-(6-(1-(3-amino-6-(2-hydroxyphenyl)pyridazin-4-yl)-4-phenylpiperidine-4-carbonyl)-2,6-diazaspiro[3.3]heptan-2-yl)-2-oxoethyl)piperidin-1-yl)-2-(2,6-dioxopiperidin-3-yl)isoindoline-1,3-dione]	70	29
Nc1nnc(-c2ccccc2O)cc1N1CC2CCC(C1)N2c1cccc(OCCN2CCN(C(=O)CCC(=O)N3CCC(Nc4cccc5c4C(=O)N(C4CCC(=O)NC4=O)C5=O)CC3)CC2)c1 (racemic) [Example 20, rac-4-[[1-[4-[4-[2-[3-[3-[3-amino-6-(2-hydroxyphenyl)pyridazin-4-yl]-3,8-diazabicyclo[3.2.1]octan-8-yl]phenoxy]ethyl]piperazin-1-yl]-4-oxo-butanoyl]-4-piperidyl]amino]-2-(2,6-dioxo-3-piperidyl)isoindoline-1,3-dione]	168	49
Nc1nnc(-c2ccccc2O)cc1OC1CCCN(c2ccc(N3CCN(CCCCCCCCCc4ccc(CNc5cccc6c5C(=O)N(C5CCC(=O)NC5=O)C6=O)nc4)CC3)cc2)C1 (stereo not shown) [Example 136, 4-[[5-[9-[4-[4-[3-[3-amino-6-(2-hydroxyphenyl)pyridazin-4-yl]oxy-1-piperidyl]phenyl]piperazin-1-yl]nonyl]-2-pyridyl]methylamino]-2-(2,6-dioxo-3-piperidyl)isoindoline-1,3-dione]	495	45
Nc1nnc(-c2ccccc2O)cc1N1CC2CCC(C1)N2c1cccc(OCCN2CCN(C(=O)C3CCN(c4ccc5c(c4)C(=O)N(C4CCC(=O)NC4=O)C5=O)CC3)CC2)c1 (racemic) [Example 142, rac-5-[4-[4-[2-[3-[3-[3-amino-6-(2-hydroxyphenyl)pyridazin-4-yl]-3,8-diazabicyclo[3.2.1]octan-8-yl]phenoxy]ethyl]piperazine-1-carbonyl]-1-piperidyl]-2-(2,6-dioxo-3-piperidyl)isoindoline-1,3-dione]	2	14
